Structures are written as SMILES. Values joined by “and” are separate entries in the source; they are usually repeats but may differ in a detail not shown here. Equal entries are not always repeated. Where two headings read alike, the source gives them in different places.

Common to all, as to experiment: CDK inhibition assay (microfluidic LabChip, IC50 format)
The target in assay [1] is CDK1/B (Homo sapiens, UniProt P06493). It counts as biochemical.
The target of assay [2] is CDK4-CYCLIND1 (Homo sapiens, UniProt P11802). Conditions: a second value in parentheses for some compounds.
Chain of CDK4-CYCLIND1 (P11802 whole entry): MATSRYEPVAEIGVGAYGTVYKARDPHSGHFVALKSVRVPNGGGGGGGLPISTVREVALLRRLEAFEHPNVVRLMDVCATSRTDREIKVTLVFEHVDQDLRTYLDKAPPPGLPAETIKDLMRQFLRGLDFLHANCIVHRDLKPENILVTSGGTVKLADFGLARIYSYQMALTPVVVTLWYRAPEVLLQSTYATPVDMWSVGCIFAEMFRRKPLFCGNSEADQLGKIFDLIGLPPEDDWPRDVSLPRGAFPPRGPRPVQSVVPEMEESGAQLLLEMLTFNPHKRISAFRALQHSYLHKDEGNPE
Chain of CDK4-CYCLIND1 (P24385 whole entry partner): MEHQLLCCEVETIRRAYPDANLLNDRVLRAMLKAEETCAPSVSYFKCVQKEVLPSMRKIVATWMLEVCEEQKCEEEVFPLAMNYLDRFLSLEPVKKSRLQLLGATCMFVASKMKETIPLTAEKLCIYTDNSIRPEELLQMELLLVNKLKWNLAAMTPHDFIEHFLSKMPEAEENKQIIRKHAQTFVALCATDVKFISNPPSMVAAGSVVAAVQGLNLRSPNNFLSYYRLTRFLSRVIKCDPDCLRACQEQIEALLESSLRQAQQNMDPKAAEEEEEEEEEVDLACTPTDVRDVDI
Assay [3] has as its target CDK7 CyclinH (Homo sapiens, UniProt P50613). It counts as biochemical.
Assay [4] addresses T1, CDK9-CYCLINT1 (Homo sapiens, UniProt P50750).
T1 construct: purchased Carna
The format is biochemical. The settings on record: read-out: CDK9 CyclinT1 IC50.

Assay [5] concerns the target T2, CDK2-CYCLINA (Homo sapiens, UniProt P24941).
T2 construct: purchased Millipore
It counts as biochemical. Conditions: read-out: CDK2 CyclinA IC50.

The target of assay [6] is T3, CDK6-CYCLIND3 (Homo sapiens, UniProt Q00534).
T3 construct: purchased Carna
T3 sequence (Q00534 whole entry): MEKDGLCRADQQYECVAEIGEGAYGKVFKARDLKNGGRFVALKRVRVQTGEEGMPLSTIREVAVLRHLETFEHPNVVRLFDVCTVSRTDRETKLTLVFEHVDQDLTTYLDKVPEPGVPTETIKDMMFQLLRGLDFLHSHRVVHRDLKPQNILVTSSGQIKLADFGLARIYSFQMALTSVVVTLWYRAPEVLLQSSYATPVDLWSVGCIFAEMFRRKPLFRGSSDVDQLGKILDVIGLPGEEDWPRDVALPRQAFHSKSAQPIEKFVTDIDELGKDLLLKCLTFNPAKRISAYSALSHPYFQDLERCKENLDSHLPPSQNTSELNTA
T3 sequence (P30281 whole entry partner): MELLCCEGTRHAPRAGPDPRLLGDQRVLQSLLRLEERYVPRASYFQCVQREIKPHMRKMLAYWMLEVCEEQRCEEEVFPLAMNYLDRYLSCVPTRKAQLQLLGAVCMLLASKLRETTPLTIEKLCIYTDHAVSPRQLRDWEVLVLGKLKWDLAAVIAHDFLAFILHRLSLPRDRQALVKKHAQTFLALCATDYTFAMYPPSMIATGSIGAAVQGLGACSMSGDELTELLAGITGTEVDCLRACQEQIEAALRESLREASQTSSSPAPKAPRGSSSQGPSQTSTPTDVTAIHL
It counts as biochemical. The settings on record: Table 4a; read-out: CDK6 CyclinD3 IC50.

Where [7] appears, read: CDK4 CyclinD1 IC50, Table 4b, lower part.

Chain of CDK7 CyclinH (P50613 whole entry): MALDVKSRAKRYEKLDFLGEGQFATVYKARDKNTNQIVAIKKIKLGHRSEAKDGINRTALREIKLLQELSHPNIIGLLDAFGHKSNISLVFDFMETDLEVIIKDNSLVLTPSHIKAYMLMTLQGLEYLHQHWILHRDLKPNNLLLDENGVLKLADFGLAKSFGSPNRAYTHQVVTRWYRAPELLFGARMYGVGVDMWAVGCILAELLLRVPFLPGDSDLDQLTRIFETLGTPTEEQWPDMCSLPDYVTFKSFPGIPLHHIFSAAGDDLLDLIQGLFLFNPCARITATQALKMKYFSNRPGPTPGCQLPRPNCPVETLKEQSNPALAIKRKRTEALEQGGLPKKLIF
Chain of CDK7 CyclinH (P51946 whole entry partner): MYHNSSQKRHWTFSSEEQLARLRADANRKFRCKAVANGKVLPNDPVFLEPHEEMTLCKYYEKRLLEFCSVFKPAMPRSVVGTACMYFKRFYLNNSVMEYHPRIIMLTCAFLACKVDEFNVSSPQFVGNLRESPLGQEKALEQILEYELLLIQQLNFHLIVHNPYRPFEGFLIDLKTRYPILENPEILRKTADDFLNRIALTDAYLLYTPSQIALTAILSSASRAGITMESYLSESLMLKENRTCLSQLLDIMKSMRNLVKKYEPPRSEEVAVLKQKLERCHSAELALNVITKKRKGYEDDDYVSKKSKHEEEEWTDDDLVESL
Chain of CDK7 CyclinH (P51948 whole entry partner): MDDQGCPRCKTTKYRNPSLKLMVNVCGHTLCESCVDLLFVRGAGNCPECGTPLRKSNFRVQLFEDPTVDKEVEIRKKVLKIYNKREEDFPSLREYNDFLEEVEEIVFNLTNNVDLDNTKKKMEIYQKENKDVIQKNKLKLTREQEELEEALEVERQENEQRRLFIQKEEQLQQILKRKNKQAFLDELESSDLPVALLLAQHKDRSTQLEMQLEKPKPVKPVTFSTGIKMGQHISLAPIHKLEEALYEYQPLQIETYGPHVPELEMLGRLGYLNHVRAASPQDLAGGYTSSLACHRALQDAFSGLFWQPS
Chain of CDK1/B (P06493 whole entry, species assumed): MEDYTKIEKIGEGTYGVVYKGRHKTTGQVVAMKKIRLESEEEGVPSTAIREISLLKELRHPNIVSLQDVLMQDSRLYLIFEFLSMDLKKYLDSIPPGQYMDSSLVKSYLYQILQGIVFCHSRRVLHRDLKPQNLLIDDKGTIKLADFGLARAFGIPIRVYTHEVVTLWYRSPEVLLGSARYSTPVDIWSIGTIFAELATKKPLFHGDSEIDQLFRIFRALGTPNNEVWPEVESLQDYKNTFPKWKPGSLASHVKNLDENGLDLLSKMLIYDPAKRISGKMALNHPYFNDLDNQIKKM
Chain of CDK1/B (P14635 whole entry partner, species assumed): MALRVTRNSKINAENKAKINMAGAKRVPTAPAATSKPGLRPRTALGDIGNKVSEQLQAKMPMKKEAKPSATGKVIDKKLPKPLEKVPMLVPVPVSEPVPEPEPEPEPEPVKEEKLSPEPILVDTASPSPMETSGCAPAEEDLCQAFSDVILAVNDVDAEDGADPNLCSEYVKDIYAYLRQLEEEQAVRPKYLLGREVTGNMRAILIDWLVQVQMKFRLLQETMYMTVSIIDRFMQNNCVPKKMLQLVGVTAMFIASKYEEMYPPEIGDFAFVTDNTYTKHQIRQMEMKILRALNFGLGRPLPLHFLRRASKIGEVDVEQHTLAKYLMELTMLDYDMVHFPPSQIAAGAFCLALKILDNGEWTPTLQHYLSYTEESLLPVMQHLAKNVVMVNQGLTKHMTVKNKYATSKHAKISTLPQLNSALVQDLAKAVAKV
T1 sequence (P50750 whole entry): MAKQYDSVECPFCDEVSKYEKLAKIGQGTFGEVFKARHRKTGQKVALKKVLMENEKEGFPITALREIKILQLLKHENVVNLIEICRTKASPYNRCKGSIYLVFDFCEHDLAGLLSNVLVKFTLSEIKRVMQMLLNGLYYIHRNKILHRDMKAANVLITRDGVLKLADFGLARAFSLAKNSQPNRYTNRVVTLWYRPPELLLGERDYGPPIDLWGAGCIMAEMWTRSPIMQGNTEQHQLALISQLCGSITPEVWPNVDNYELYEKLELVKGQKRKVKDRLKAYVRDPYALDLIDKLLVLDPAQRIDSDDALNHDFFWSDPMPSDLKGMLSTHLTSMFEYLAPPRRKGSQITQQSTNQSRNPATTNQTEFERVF
T1 sequence (O60563 whole entry partner): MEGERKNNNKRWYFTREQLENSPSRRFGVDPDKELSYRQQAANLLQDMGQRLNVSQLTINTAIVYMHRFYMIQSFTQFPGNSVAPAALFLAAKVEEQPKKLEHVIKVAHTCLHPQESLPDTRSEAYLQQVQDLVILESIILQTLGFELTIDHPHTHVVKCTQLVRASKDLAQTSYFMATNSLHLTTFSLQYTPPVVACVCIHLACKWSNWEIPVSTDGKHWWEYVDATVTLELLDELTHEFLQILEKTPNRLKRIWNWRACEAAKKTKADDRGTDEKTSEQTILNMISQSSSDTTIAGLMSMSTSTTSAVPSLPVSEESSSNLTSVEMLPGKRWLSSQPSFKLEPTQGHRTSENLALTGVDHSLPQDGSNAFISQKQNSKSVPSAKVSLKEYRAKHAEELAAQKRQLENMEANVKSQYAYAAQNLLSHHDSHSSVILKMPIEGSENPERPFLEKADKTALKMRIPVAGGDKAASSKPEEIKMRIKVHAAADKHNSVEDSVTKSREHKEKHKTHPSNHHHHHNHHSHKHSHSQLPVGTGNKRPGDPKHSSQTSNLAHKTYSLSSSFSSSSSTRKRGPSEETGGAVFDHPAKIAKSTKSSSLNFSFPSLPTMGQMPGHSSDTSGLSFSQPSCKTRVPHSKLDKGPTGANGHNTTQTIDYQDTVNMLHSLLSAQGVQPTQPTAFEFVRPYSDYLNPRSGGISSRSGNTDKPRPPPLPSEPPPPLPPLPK

As to `O=C1NCC[C@@]12Cc1cnc(Nc3ccc(N4CCN(CCO)CC4)c(F)c3)nc1N(C13CC(C1)C3)C2=O` [Example D99, (S)-8-(bicyclo[1.1.1]pentan-1-yl)-2-((3-fluoro-4-(4-(2-hydroxyethyl)piperazin-1-yl)phenyl)amino)-5,8-dihydro-7H-spiro[pyrido[2,3-d]pyrimidine-6,3′-pyrrolidine]-2′,7-dione], the IC50 was 2910 nM in assay [1] (Table 4b, lower part); 13.3 nM in assay [2] (setting [7]); 1240 nM in assay [3] (Table 4b, lower part); 28.1 nM in assay [4] (Table 4b, lower part); 1090 nM in assay [5] (Table 4b, lower part).
In the same order, the values of `CN1CC2(C1)CN(c1ccc(Nc3ncc4c(n3)N(C3CCCC3)C(=O)[C@]3(CCNC3=O)C4)cc1F)C2` [Example D101, (S)-8-cyclopentyl-2-((3-fluoro-4-(6-methyl-2,6-diazaspiro[3.3]heptan-2-yl)phenyl)amino)-5,8-dihydro-7H-spiro[pyrido[2,3-d]pyrimidine-6,3′-pyrrolidine]-2′,7-dione] are 167 nM, under 3.2 nM, 162 nM, under 3.2 nM and 36.8 nM.
For `CC(C)N1CC2(CN(c3ccc(Nc4ncc5c(n4)N(C4CCCC4)C(=O)[C@]4(CCNC4=O)C5)cc3)C2)C1` [Example D102, (S)-8-cyclopentyl-2-((4-(6-isopropyl-2,6-diazaspiro[3.3]heptan-2-yl)phenyl)amino)-5,8-dihydro-7H-spiro[pyrido[2,3-d]pyrimidine-6,3′-pyrrolidine]-2′,7-dione], the IC50 in assay [1] (Table 4b, lower part) is 464 nM; in assay [2] (setting [7]), under 3.2 nM; in assay [3] (Table 4b, lower part), 642 nM; in assay [4] (Table 4b, lower part) it was under 3.2 nM; in assay [5] (Table 4b, lower part), 126 nM.
For the compound `CN1CCN(C2CCN(c3ccc(Nc4ncc5c(n4)N(C4CCCC4)C(=O)[C@]4(CCNC4=O)C5)cc3F)CC2)CC1` [Example D105, (S)-8-cyclopentyl-2-((3-fluoro-4-(4-(4-methylpiperazin-1-yl)piperidin-1-yl)phenyl)amino)-5,8-dihydro-7H-spiro[pyrido[2,3-d]pyrimidine-6,3′-pyrrolidine]-2′,7-dione], the IC50 in assay [1] (Table 4a) was 172 nM; in assay [2] (CDK4 CyclinD1 IC50, Table 4a), under 3.2 nM; in assay [3] (Table 4a) it was 134 nM; in assay [4] (Table 4a), under 3.2 nM; in assay [5] (Table 4a), 54.5 nM.
Consider `CS(=O)(=O)c1ccc(Nc2ncc3c(n2)N(C2CCCC2)C(=O)[C@]2(CCNC2=O)C3)cc1` [Example D114, (S)-8-cyclopentyl-2-((4-(methylsulfonyl)phenyl)amino)-5,8-dihydro-7H-spiro[pyrido[2,3-d]pyrimidine-6,3′-pyrrolidine]-2′,7-dione], for which the IC50 in assay [1] (Table 4b, lower part) was 37.9 nM; in assay [2] (setting [7]), under 3.2 nM; in assay [3] (Table 4b, lower part), 1670 nM; in assay [4] (Table 4b, lower part) it was under 3.2 nM; in assay [5] (Table 4b, lower part), under 3.2 nM.
For `O=C1NCC[C@@]12Cc1cnc(Nc3ccc(OCCO)cc3)nc1N(C1CCCC1)C2=O` [Example D116, (S)-8-cyclopentyl-2-((4-(2-hydroxyethoxy)phenyl)amino)-5,8-dihydro-7H-spiro[pyrido[2,3-d]pyrimidine-6,3′-pyrrolidine]-2′,7-dione], the concentration for half-maximal inhibition (IC50) was 232 nM in assay [1] (Table 4b, lower part); under 3.2 nM in assay [2] (setting [7]); 3450 nM in assay [3] (Table 4b, lower part); under 3.2 nM in assay [4] (Table 4b, lower part); 31.3 nM in assay [5] (Table 4b, lower part).
In the case of `CS(=O)(=O)N1CCC(Nc2ncc3c(n2)N(C2CCCC2)C(=O)[C@]2(CCNC2=O)C3)CC1` [Example D117, (S)-8-cyclopentyl-2-((1-(methylsulfonyl)piperidin-4-yl)amino)-5,8-dihydro-7H-spiro[pyrido[2,3-d]pyrimidine-6,3′-pyrrolidine]-2′,7-dione], the IC50 in assay [1] (Table 4b, lower part) was 4.46 nM; in assay [2] (setting [7]) it was under 3.2 nM; in assay [3] (Table 4b, lower part) it was 215 nM; in assay [4] (Table 4b, lower part) it was 3.51 nM; in assay [5] (Table 4b, lower part), under 3.2 nM.
In the case of `CS(=O)(=O)N1CCC(Nc2ncc3c(n2)N(C24CC(C2)C4)C(=O)[C@]2(CCNC2=O)C3)CC1` [Example D123, (S)-8-(bicyclo[1.1.1]pentan-1-yl)-2-((1-(methylsulfonyl)piperidin-4-yl)amino)-5,8-dihydro-7H-spiro[pyrido[2,3-d]pyrimidine-6,3′-pyrrolidine]-2′,7-dione], the IC50 in assay [1] (Table 4b, lower part) is 22 nM; in assay [2] (setting [7]), under 3.2 nM; in assay [3] (Table 4b, lower part), 880 nM; in assay [4] (Table 4b, lower part), 19.3 nM; in assay [5] (Table 4b, lower part), 4.19 nM.
For `C[C@]1(O)CC[C@@H](Nc2ncc3c(n2)N(C2CCCC2)C(=O)[C@]2(CCNC2=O)C3)CC1` [Example D126, (S)-8-cyclopentyl-2-(((1s,4R)-4-hydroxy-4-methylcyclohexyl)amino)-5,8-dihydro-7H-spiro[pyrido[2,3-d]pyrimidine-6,3′-pyrrolidine]-2′,7-dione], the IC50 in assay [1] (Table 4b, lower part) is 2200 nM; in assay [2] (setting [7]), 22.7 nM; in assay [3] (Table 4b, lower part), over 10000 nM; in assay [4] (Table 4b, lower part), 25.4 nM; in assay [5] (Table 4b, lower part), 803 nM.
Taken in the same sequence, the figures for `CN1CCC(c2ccc(Nc3ncc4c(n3)N(C3CCCC3)C(=O)[C@]3(CCNC3=O)C4)cc2)CC1` [Example D135, (S)-8-cyclopentyl-2-((4-(1-methylpiperidin-4-yl)phenyl)amino)-5,8-dihydro-7H-spiro[pyrido[2,3-d]pyrimidine-6,3′-pyrrolidine]-2′,7-dione] were 205 nM, under 3.2 nM, 222 nM, 4.31 nM and 89.8 nM.
Consider `CN(C)CCOc1ccc(Nc2ncc3c(n2)N(C2CCCC2)C(=O)[C@]2(CCNC2=O)C3)nc1` [Example D138, (S)-8-cyclopentyl-2-((5-(2-(dimethylamino)ethoxy)pyridin-2-yl)amino)-5,8-dihydro-7H-spiro[pyrido[2,3-d]pyrimidine-6,3′-pyrrolidine]-2′,7-dione], for which the IC50 is over 10000 nM in assay [1] (Table 4a); 4.58 nM in assay [2] (CDK4 CyclinD1 IC50, Table 4a); over 10000 nM in assay [3] (Table 4a); 204 nM in assay [4] (Table 4a); over 10000 nM in assay [5] (Table 4a).
`CC(C)N1CCN(c2ccc(Nc3ncc4c(n3)N(C3CCCC3)C(=O)[C@]3(CCNC3=O)C4)c(F)c2)CC1` [Example D148, (S)-8-cyclopentyl-2-((2-fluoro-4-(4-isopropylpiperazin-1-yl)phenyl)amino)-5,8-dihydro-7H-spiro[pyrido[2,3-d]pyrimidine-6,3′-pyrrolidine]-2′,7-dione]: the half-maximal inhibitory concentration (IC50) in assay [6] was 4670 nM; in assay [1] (Table 4a), over 10000 nM; in assay [2] (CDK4 CyclinD1 IC50, Table 4a), 1270 nM and 188 nM; in assay [3] (Table 4a), over 100000 nM; in assay [4] (Table 4a) it was 6250 nM and 987 nM; in assay [5] (Table 4a), 83200 nM and > 10000 nM.
On to `CC1CN(c2ccc(Nc3ncc4c(n3)N(C3CCCC3)C(=O)[C@]3(CCNC3=O)C4)cc2)CC(C)N1` (stereo partly drawn) [Example D199, (6S)-8-cyclopentyl-2-((4-(3,5-dimethylpiperazin-1-yl)phenyl)amino)-5,8-dihydro-7H-spiro[pyrido[2,3-d]pyrimidine-6,3′-pyrrolidine]-2′,7-dione], for which the IC50 in assay [1] (Table 4b, lower part) is 353 nM; in assay [2] (setting [7]) it was under 3.2 nM; in assay [3] (Table 4b, lower part), 406 nM; in assay [4] (Table 4b, lower part) it was 3.74 nM; in assay [5] (Table 4b, lower part) it was 74.6 nM.
In the same order, the values of `CC1CN(c2ccc(Nc3ncc4c(n3)N(C35CC(C3)C5)C(=O)[C@]3(CCNC3=O)C4)cc2)CC(C)N1` (stereo partly drawn) [Example D200, (6S)-8-(bicyclo[1.1.1]pentan-1-yl)-2-((4-(3,5-dimethylpiperazin-1-yl)phenyl)amino)-5,8-dihydro-7H-spiro[pyrido[2,3-d]pyrimidine-6,3′-pyrrolidine]-2′,7-dione] are 8670 nM, 39.7 nM, 3770 nM, 72.6 nM and 3420 nM.
In the same order, the values of `CC(C)C1CCN(c2ccc(Nc3ncc4c(n3)N(C3CCCC3)C(=O)[C@]3(CCNC3=O)C4)cc2)CC1` [Example D201, (S)-8-cyclopentyl-2-((4-(4-isopropylpiperidin-1-yl)phenyl)amino)-5,8-dihydro-7H-spiro[pyrido[2,3-d]pyrimidine-6,3′-pyrrolidine]-2′,7-dione] are 2850 nM, 5.04 nM, 2970 nM, 7.85 nM and 424 nM.
In the case of `O=C1NCC[C@@]12Cc1cnc(Nc3ccc(N4CCN(C5CC5)CC4)cc3)nc1N(C1CCCC1)C2=O` [Example D202, (S)-8-cyclopentyl-2-((4-(4-cyclopropylpiperazin-1-yl)phenyl)amino)-5,8-dihydro-7H-spiro[pyrido[2,3-d]pyrimidine-6,3′-pyrrolidine]-2′,7-dione], the IC50 is 295 nM in assay [1] (Table 4b, lower part); under 3.2 nM in assay [2] (setting [7]); 276 nM in assay [3] (Table 4b, lower part); over 10000 nM in assay [4] (Table 4b, lower part); 40.4 nM in assay [5] (Table 4b, lower part).

Source of the values: patent US20230048132A1, “CYCLIN-DEPENDENT KINASE INHIBITORS” (SPV THERAPEUTICS INC., priority 2018, published 2023).
